Reference: PubChem BioAssay AID1745844 (Carcinogenic Potency Database (CPDB), 2022)
Activity calls are given as the source filed them. The rule behind the calls is not given here.

System: rodent lifetime carcinogenesis bioassay, tumor incidence TD50
Experiment: chronic cancer bioassays in animals – CPDB, compiled studies (AID 1745844)

In the case of `[O]=[Cr](=[O])([OH])[O][Cr](=[O])(=[O])[OH]`, the TD50 (rat, strain Wistar, males, inhaled, site: any site (literature study), lesion: several types, types named in the paper, dosed 78 weeks, study length 130 weeks) is reported as 0.875 mg/kg/day, the TD50 (rat, strain Wistar, males, inhaled, site: liver, lesion: malignant tumor, dosed 78 weeks, study length 130 weeks) is reported as 14.4 mg/kg/day and the TD50 (rat, strain Wistar, males, inhaled, site: lung, lesion: adenocarcinoma, dosed 78 weeks, study length 130 weeks) is reported as 7.07 mg/kg/day. The TD50 (rat, strain Wistar, males, inhaled, site: lung, lesion: adenoma, dosed 78 weeks, study length 130 weeks) was 14.4 mg/kg/day, the TD50 (rat, strain Wistar, males, inhaled, site: lung, lesion: several types, types named in the paper, dosed 78 weeks, study length 130 weeks) was 4.64 mg/kg/day and the TD50 (rat, strain Wistar, males, inhaled, site: pharynx, lesion: squamous-cell carcinoma, dosed 78 weeks, study length 130 weeks) was 14.4 mg/kg/day.

`c1ccc2n[nH]nc2c1` gave a TD50 (mouse, strain B6C3F1, females, in feed, site: any site (literature study), lesion: several types, types named in the paper, dosed 104 weeks, study length 106 weeks) of 18900 mg/kg/day, a TD50 (mouse, strain B6C3F1, females, in feed, site: lung, lesion: alveolar/bronchiolar adenoma + alveolar/bronchiolar carcinoma, dosed 104 weeks, study length 106 weeks) of 3890 mg/kg/day and a TD50 (mouse, strain B6C3F1, females, in feed, site: lung, lesion: alveolar/bronchiolar carcinoma, dosed 104 weeks, study length 106 weeks) of 4390 mg/kg/day. The carcinogen call (mouse, strain B6C3F1, males, in feed, site: any site (literature study), lesion: several types, types named in the paper, dosed 104 weeks, study length 106 weeks) was “negative (inactive)”, the TD50 (rat, strain Fischer 344, females, in feed, site: brain, lesion: glioma, NOS, dosed 78 weeks, study length 105 weeks) was 20300 mg/kg/day and the TD50 (rat, strain Fischer 344, females, in feed, site: liver, lesion: hepatocellular adenoma + hepatocellular carcinoma + neoplastic nodule, dosed 78 weeks, study length 105 weeks) was 10100 mg/kg/day. The carcinogen call (rat, strain Fischer 344, males, in feed, site: brain, lesion: glioma, NOS + oligodendroglioma, dosed 78 weeks, study length 104 weeks) was “a”, the TD50 (rat, strain Fischer 344, males, in feed, site: liver, lesion: hepatocellular adenoma + hepatocellular carcinoma + neoplastic nodule, dosed 78 weeks, study length 104 weeks) was 2720 mg/kg/day and the TD50 (rat, strain Fischer 344, males, in feed, site: liver, lesion: neoplastic nodule, dosed 78 weeks, study length 104 weeks) was 2720 mg/kg/day.

`CC(Cl)(Cl)Cl` was tested, and the TD50 (mouse, strain B6C3F1, females, by gavage, site: lung, lesion: alveolar/bronchiolar adenoma + alveolar/bronchiolar carcinoma, dosed 78 weeks, study length 90 weeks) was 260000 mg/kg/day, the carcinogen call (mouse, strain B6C3F1, females, inhaled, site: liver, lesion: hepatocellular adenoma, dosed 104 weeks, study length 104 weeks) was “negative (inactive)” and the carcinogen call (mouse, strain B6C3F1, females, inhaled, site: liver, lesion: hepatocellular carcinoma, dosed 104 weeks, study length 104 weeks) was “negative (inactive)”. The carcinogen call (mouse, strain B6C3F1, females, inhaled, site: liver, lesion: several types, types named in the paper, dosed 104 weeks, study length 104 weeks) was “negative (inactive)”, the TD50 (mouse, strain B6C3F1, males, by gavage, site: any site (literature study), lesion: several types, types named in the paper, dosed 78 weeks, study length 90 weeks) was 30500 mg/kg/day and the TD50 (mouse, strain B6C3F1, males, by gavage, site: liver, lesion: hepatocellular adenoma + hepatocellular carcinoma + neoplastic nodule, dosed 78 weeks, study length 90 weeks) was 39700 mg/kg/day. The TD50 (mouse, strain B6C3F1, males, by gavage, site: lung, lesion: alveolar/bronchiolar adenoma + alveolar/bronchiolar carcinoma, dosed 78 weeks, study length 90 weeks) was 5.08e+06 mg/kg/day, the carcinogen call (mouse, strain B6C3F1, males, inhaled, site: liver, lesion: hepatocellular adenoma, dosed 104 weeks, study length 104 weeks) was “negative (inactive)” and the TD50 (mouse, strain B6C3F1, males, inhaled, site: liver, lesion: hepatocellular carcinoma, dosed 104 weeks, study length 104 weeks) was 66300 mg/kg/day (inactive). For the same molecule, the carcinogen call (mouse, strain B6C3F1, males, inhaled, site: liver, lesion: several types, types named in the paper, dosed 104 weeks, study length 104 weeks) was “negative (inactive)”, the carcinogen call (rat, strain Fischer 344, females, inhaled, site: liver, lesion: hepatocellular carcinoma, dosed 104 weeks, study length 104 weeks) was “negative (inactive)” and the carcinogen call (rat, strain Fischer 344, females, inhaled, site: liver, lesion: neoplastic nodule, dosed 104 weeks, study length 104 weeks) was “negative (inactive)”. The TD50 (rat, strain Fischer 344, males, inhaled, site: liver, lesion: hepatocellular carcinoma, dosed 104 weeks, study length 104 weeks) was 2070 mg/kg/day (inactive), the TD50 (rat, strain Fischer 344, males, inhaled, site: liver, lesion: neoplastic nodule, dosed 104 weeks, study length 104 weeks) was 5120 mg/kg/day (inactive) and the TD50 (rat, strain Osborne-Mendel, females, by gavage, site: any site (literature study), lesion: several types, types named in the paper, dosed 78 weeks, study length 112 weeks) was 226 mg/kg/day. It also gave a TD50 (rat, strain Osborne-Mendel, males, by gavage, site: any site (literature study), lesion: several types, types named in the paper, dosed 78 weeks, study length 106 weeks) of 950 mg/kg/day.

In the case of `CCOc1ccccc1C(N)=O`, the TD50 (mouse, strain B6C3F1, females, in feed, site: liver, lesion: several types, types named in the paper, dosed 96 weeks, study length 100 weeks) is reported as 3310 mg/kg/day and the TD50 (mouse, strain B6C3F1, males, in feed, site: liver, lesion: several types, types named in the paper, dosed 96 weeks, study length 100 weeks) is reported as 513 mg/kg/day.

In the case of `CC1=CC(C)(C)N(N=O)c2ccccc21`, the TD50 (rat, strain CB, males, i.p., site: peritoneal cavity, lesion: sarcoma, dosed 26 weeks, study length 100 weeks) is reported as 3.31 mg/kg/day.

For `O=CC(O)C(O)C(O)C(O)COC1OC(COC2OC(CO)C(O)C(O)C2O)C(O)C(O)C1O` (stereo unspecified), the TD50 (rat, strain ACI, females, in feed, site: urinary bladder, lesion: one or several types, types not named, dosed 68 weeks, study length 68 weeks) was 1640 mg/kg/day (inactive) and the TD50 (rat, strain ACI, males, in feed, site: urinary bladder, lesion: one or several types, types not named, dosed 68 weeks, study length 68 weeks) was 3190 mg/kg/day (inactive).

`Cc1ccc(O)c(O)c1` was tested, and the TD50 (rat, strain F344/DuCrj, females, in feed, site: forestomach, lesion: squamous-cell carcinoma, dosed 104 weeks, study length 104 weeks) was 1500 mg/kg/day, the TD50 (rat, strain F344/DuCrj, females, in feed, site: forestomach, lesion: squamous-cell papilloma, dosed 104 weeks, study length 104 weeks) was 253 mg/kg/day and the TD50 (rat, strain F344/DuCrj, females, in feed, site: stomach, glandular, lesion: adenocarcinoma, dosed 104 weeks, study length 104 weeks) was 1090 mg/kg/day. For the same molecule, the carcinogen call (rat, strain F344/DuCrj, females, in feed, site: stomach, glandular, lesion: adenoma, dosed 104 weeks, study length 104 weeks) was “positive”, the TD50 (rat, strain F344/DuCrj, females, in feed, site: stomach, glandular, lesion: sarcoma, dosed 104 weeks, study length 104 weeks) was 6500 mg/kg/day and the TD50 (rat, strain F344/DuCrj, males, in feed, site: forestomach, lesion: squamous-cell carcinoma, dosed 104 weeks, study length 104 weeks) was 719 mg/kg/day. The TD50 (rat, strain F344/DuCrj, males, in feed, site: forestomach, lesion: squamous-cell papilloma, dosed 104 weeks, study length 104 weeks) was 468 mg/kg/day, the TD50 (rat, strain F344/DuCrj, males, in feed, site: stomach, glandular, lesion: adenocarcinoma, dosed 104 weeks, study length 104 weeks) was 656 mg/kg/day and the carcinogen call (rat, strain F344/DuCrj, males, in feed, site: stomach, glandular, lesion: adenoma, dosed 104 weeks, study length 104 weeks) was “positive”. For the same molecule, the TD50 (rat, strain F344/DuCrj, males, in feed, site: stomach, glandular, lesion: sarcoma, dosed 104 weeks, study length 104 weeks) was 3830 mg/kg/day.
